What was measured:
ErbB1 [1] = molecular target: T1, ErbB1 (Homo sapiens, UniProt P00533); experiment: ErbB receptor phosphorylation, NR6 wtEGFR cells; assay type: cell-based; design: expressed in transfected cells; host or cells: NR6 fibroblastoid cells (NR6 wtEGFR); conditions: 10 ng/ml EGF for 10 min, immunoblotting (FIG. 7)
Protocol: The cells employed for this assay were NR6 wtEGFR cells, which are fibroblastoid cells stably transfected with ErbB1, and human head and neck tumor-derived HN5 cell. Confluent NR6 wtEGFR or HN5 cells were treated with peptide in the indicated concentrations for 30 min, then stimulated with 10 ng/ml EGF (Sigma-Aldrich, St. Louis, Mo., USA) for 10 min. Cells were lysed in lysis buffer (1% (v/v) Triton X-100, 150 mM NaCl, 10 mM Tris pH 7.4, 1 mM EDTA, 1 mM EGTA, 0.5% (v/v) NP-40, phosphatase inhibitors (Phosphatase Inhibitor Cocktail Set II from Calbiochem, La Jolla, Calif., USA) and protease inhibitors (Complete™ Protease Inhibitor Cocktail from Boehringer Mannheim Biochemica, Mannheim, Germany)), and cleared lysate samples containing equal amounts of total protein (as determined by a bicinchoninic acid assay (Pierce, Rockford, Ill., USA)) were subjected in duplicates to 4-12% SDS-PAGE and immunoblotting. […] The intensity of bands was quantified using densitometric analysis employing the software package GeneTools (Syngene, Cambridge, UK).
NR6 wtEGFR cells (a fibroblastoid cell line stably transfected with ErbB1) were treated with peptide in the indicated concentrations for […], then stimulated with 10 ng/ml EGF for 10 min. […] The intensity of bands was quantified using densitometric analysis employing the software package GeneTools (Syngene, Cambridge, UK).

ErbB1 [2] = molecular target: T1, ErbB1; experiment: ErbB receptor phosphorylation, HN5 cells; assay type: cell-based; design: the ErbB1 overexpressing human head and neck cancer cell line HN5; endogenous in cells; host or cells: HN5 human head and neck cancer cells; conditions: 100 μM peptide for 30 min, 10 ng/ml EGF for 10 min (FIG. 8)
Protocol: The cells employed for this assay were NR6 wtEGFR cells, which are fibroblastoid cells stably transfected with ErbB1, and human head and neck tumor-derived HN5 cell. Confluent NR6 wtEGFR or HN5 cells were treated with peptide in the indicated concentrations for 30 min, then stimulated with 10 ng/ml EGF (Sigma-Aldrich, St. Louis, Mo., USA) for 10 min. Cells were lysed in lysis buffer (1% (v/v) Triton X-100, 150 mM NaCl, 10 mM Tris pH 7.4, 1 mM EDTA, 1 mM EGTA, 0.5% (v/v) NP-40, phosphatase inhibitors (Phosphatase Inhibitor Cocktail Set II from Calbiochem, La Jolla, Calif., USA) and protease inhibitors (Complete™ Protease Inhibitor Cocktail from Boehringer Mannheim Biochemica, Mannheim, Germany)), and cleared lysate samples containing equal amounts of total protein (as determined by a bicinchoninic acid assay (Pierce, Rockford, Ill., USA)) were subjected in duplicates to 4-12% SDS-PAGE and immunoblotting. One membrane was probed with anti-phospho-EGFR (phosphotyrosine 1068) antibody (Cell Signaling Technology, Danvers, Mass., USA), the other with anti-EGFR antibody (Cell Signaling Technology). Detection was carried out using horseradish peroxidase (HRP)-conjugated secondary antibodies (DAKO, Denmark) and enhanced chemiluminiscence (Pierce). The intensity of bands was quantified using densitometric analysis employing the software package GeneTools (Syngene, Cambridge, UK).

L929 cells [3] = experiment: Cell motility assay (time-lapse video recording); assay type: cell-based
Protocol: Subconfluent L929 cells were infected with Ad5.CMV-GFP virus according to the manufacturer instruction (Clontech). 24 h after transfection, cells were seeded at a density of 4×10^3 cells/cm^2 and grown for 24 h. Cells were then treated with the indicated concentration of peptide and EGF, and cell positions were recorded every 15 min at 25 fixed positions in each culture for 4 hours using automatic time-lapse video recording. The workstation employed comprised an Eclipse TE300 inverted microscope (Nikon, Japan) equipped with a heated, movable, computer controlled microscope stage. Recordings were performed using the PRIGRA software (developed at the Protein Laboratory, Copenhagen, Denmark).
Analysis of individual cell motility was performed using an automatic procedure for single cell motility evaluation. Briefly, automatic marking of cell positions in consecutive video frames was used for determination of the migration tracks of the cells during the whole recording period. The obtained cell coordinate data were used for the calculation of motility parameters by means of the ‘complex overlapping’ method. Briefly, the mean squared cell displacement, ? d^2 ? , was calculated as the Euclidean distance between two points corresponding to the initial and final position of the cell. The rate of diffusion, R, was calculated by fitting the curve of ? d^2 ? plotted against time to the equation ? d^2(ti) ? =R(τ−P(1−e^(−τ/P))), • where ti is the time interval of interest, τ is the time interval between observations, i.e. 15 min, and P is the persistence time in direction (28). The mean cell speed, Sτ, was calculated as the mean cell displacement taking place between discrete observations ( ? dτ ? ) divided by the time interval between discrete observations (τ), according to the equation:
[formula] • The mean cell-path-length, ? L ? , for a sample of a population of cells at a given time of observation, was calculated as:
[formula] • The locomotive index, LI, was calculated as the ratio of the mean cell displacement and the mean cell-path-length:
[formula] LI was used as a measure of the directional persistence of the cells.

L929 cells [4] = experiment: Cell proliferation (BrdU incorporation); assay type: cell-based
Protocol: 2000 L929 cells (ECACC no: 85011425) per well were seeded in a 96 well plate in full medium (containing 10% foetal calf serum) or starvation medium (serum-free). Peptides, ErbB1 kinase inhibitor PD153035 (Calbiochem), and EGF (Sigma-Aldrich) were added immediately after seeding of the cells (for experiments done in full serum) or after 8 hours of incubation (for experiments done in starvation medium) in the concentrations indicated in figures. Cells were grown for 6 hours, then 10 μM bromodeoxyuridine (BrdU) was added, and cells were grown for additional 18 hours. Then, BrdU incorporation in the cells was assayed using the Biotrak ELISA System, version 2 from Amersham Biosciences Europe GmbH (Buckinghamshire, UK) following the manufacturer's protocol.

HN5 cells = experiment: Cell viability / cell growth (MTS staining); assay type: cell-based, human; conditions: HN5 cells
Protocol: 2000 HN5 cells per well were seeded in a 96 well plate in full medium (containing 10% fetal calf serum) or starvation medium (serum-free). After 12 hours of incubation, peptides or ErbB1 kinase inhibitor PD153035 (Calbiochem) and/or EGF (Sigma-Aldrich) were added in the concentrations indicated in figures. Cells were grown for 72 hours, then 20 μl MTS One Solution Reagent (Promega, Madison, Wis., USA) were added per 100 μl culture medium in each well, and the plates were incubated for 1-2 hours at 37° C., followed by absorbance measurements at 490 nm.

LVYNKLTFQLEPNPHTK (Inherbin 3 peptide) [Inherbin3]
effect on EGF-induced ErbB1 phosphorylation (ErbB1 [1]): inhibited EGF-induced ErbB1 phosphorylation significantly | effect on EGF-induced ErbB1 phosphorylation (ErbB1 [2]): significantly inhibited EGF-induced ErbB1 phosphorylation | effect on mean cell speed (L929 cells [3]; L929 cells (FIG. 5C)): did not significantly affect the mean cell speed | effect on locomotive index, LI (L929 cells [3]; L929 cells (FIG. 5D)): reflected the changes seen in rate of diffusion | effect on rate of diffusion, R (L929 cells [3]; L929 cells, absence of EGF, peptide dose 10 μM (FIG. 5B)): stimulated the rate of diffusion to the level of the EGF-induced response | effect on EGF-induced increase in rate of diffusion, R (L929 cells [3]; L929 cells, with EGF (FIG. 5B)): significantly inhibited | effect on EGF-induced increase in rate of diffusion, R (L929 cells [3]; L929 cells, with EGF, peptide dose 40 μM (FIG. 5B)): completely blocked the EGF-induced increase in rate of diffusion | effect on EGF-induced cell proliferation (L929 cells [4]; L929 cells, full medium, BrdU incorporation (FIG. 2, FIG. 3)): able to inhibit EGF-induced cell proliferation significantly | inhibition of the EGF-induced effects (L929 cells [4]; summary for cell proliferation, cell motility and ErbB1 phosphorylation in cells with a lower ErbB1 expression level): ~100% | effect on serum-induced cell growth (HN5 cells; full medium containing 10% serum (FIG. 6B)): inhibited serum-induced cell growth | inhibition of the EGF-induced increase in cell growth (HN5 cells; starvation medium, EGF-stimulated, 3 days, MTS (FIG. 6A)): ~35% | effect on basal cell growth (HN5 cells; starvation medium, without EGF-stimulation (FIG. 6A)): no effect on the basal cell growth

Reference: patent publication US7897723B2, “ErbB receptor-derived peptide fragments” (Københavns Universitet, priority 2006, dated 2011)
